Measurements taken from PubChem BioAssay AID1033 (Sanford-Burnham Center for Chemical Genomics, 2008).
Active and inactive are the calls of the source. The rule behind the calls is not given here.

Molecular target: Chaperone protein DnaK (Escherichia coli (strain K12)) (UniProt P0A6Y8)
Assay: binders of DnaK substrate-binding domain, biophysical, NMR, chaperone (AID 1033)
Conditions: Purified DnaK SBD, NMR ligand binding

Chaperone protein DnaK (Escherichia coli (strain K12)), sequence (P0A6Y8 whole entry, looked up, the tested form may be a part): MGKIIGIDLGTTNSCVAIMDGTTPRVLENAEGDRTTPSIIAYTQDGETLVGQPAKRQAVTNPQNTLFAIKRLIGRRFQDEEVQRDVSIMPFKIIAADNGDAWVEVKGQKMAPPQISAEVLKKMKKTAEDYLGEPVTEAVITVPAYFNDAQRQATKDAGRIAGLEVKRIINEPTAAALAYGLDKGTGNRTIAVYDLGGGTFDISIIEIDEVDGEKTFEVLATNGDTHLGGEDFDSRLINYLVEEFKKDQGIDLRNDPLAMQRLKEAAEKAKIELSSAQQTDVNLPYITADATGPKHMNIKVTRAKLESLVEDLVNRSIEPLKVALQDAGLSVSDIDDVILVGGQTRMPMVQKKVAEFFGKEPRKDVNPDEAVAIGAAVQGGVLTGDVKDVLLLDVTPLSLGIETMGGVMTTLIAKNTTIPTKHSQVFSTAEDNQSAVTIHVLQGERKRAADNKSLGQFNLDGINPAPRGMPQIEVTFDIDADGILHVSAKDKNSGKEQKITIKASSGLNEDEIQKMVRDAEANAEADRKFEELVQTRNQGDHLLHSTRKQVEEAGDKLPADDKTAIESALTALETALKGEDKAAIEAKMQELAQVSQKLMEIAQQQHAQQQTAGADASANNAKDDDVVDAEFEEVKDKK

Row | SMILES | Kd
1 | Nc1cc(=O)[nH]c(=O)n1Cc1ccco1 | > 4 mM (inactive)
2 | CCc1cccc(C)c1NC(=O)c1cc(C)oc1C | > 4 mM (inactive)
3 | CC1=C(C(N)=O)C(c2ccco2)C(C(N)=O)=C(C)N1 | > 4 mM (inactive)
4 | COc1c(O)cccc1O | > 4 mM (inactive)
5 | CN(C)/C=N/S(=O)(=O)c1ccccc1 | > 4 mM (inactive)
6 | O=C(O)c1ccc(N2CCCCC2)cc1 | > 4 mM (inactive)
7 | Cc1[nH]ccc2c1[nH]c1cc(=O)ccc12 | > 4 mM (inactive)
8 | CCOC(=O)c1csc(N)n1 | > 4 mM (inactive)
9 | CC(CCC(=O)O)[C@H]1CCC2C3C(C[C@H](O)[C@@]21C)[C@@]1(C)CC[C@@H](O)C[C@H]1C[C@H]3O (some centres undefined) | > 4 mM (inactive)
10 | COc1ccc(C2CC(=O)c3ccc(OC)cc3O2)cc1 (centres undefined) | > 4 mM (inactive)
11 | COC1=CC(=O)C=C(OC)C1=O | > 4 mM (inactive)
12 | CC1(C)C2CC[C@]3(C)C(C(=O)C=C4[C@@H]5C[C@@](C)(C(=O)O)CC[C@]5(C)CC[C@]43C)[C@@]2(C)CC[C@@H]1O (some centres undefined) | > 4 mM (inactive)
13 | CC(C)=CCc1c(O)cc2oc(C)cc(=O)c2c1O | > 4 mM (inactive)
14 | C=C(C)[C@H]1Cc2c(ccc3c2O[C@@H]2COc4cc(OC)c(OC)cc4[C@@H]2C3=O)O1 | > 4 mM (inactive)
15 | Cc1nnc(SCc2ccon2)n1-c1ccccc1 | > 4 mM (inactive)
16 | CN(C(N)=O)C1(C)CCS(=O)(=O)C1 (centres undefined) | > 4 mM (inactive)
17 | O=c1[nH]cc(NC(=S)N2CCOCC2)c(=O)[nH]1 | > 4 mM (inactive)
18 | S=C(c1ccc(N2CCOCC2)cc1)N1CCOCC1 | > 4 mM (inactive)
19 | CN(C)C(=O)N1CCN(C(=O)c2ccco2)CC1 | > 4 mM (inactive)
20 | O=C(Nc1cccnc1)c1ccc(Br)s1 | > 4 mM (inactive)

Row | SMILES | Kd
21 | O=C(Nc1ccc2c(c1)OCO2)c1ccc(=O)[nH]n1 | > 4 mM (inactive)
22 | C=CCSCC=C | > 4 mM (inactive)
23 | CCOC(=O)c1cnn2ccccc12 | > 4 mM (inactive)
24 | COc1ccc(C2CC(=O)NN2)cc1OC1CCCC1 (centres undefined) | > 4 mM (inactive)
25 | NNC(=O)c1ccccc1-n1cccc1 | > 4 mM (inactive)
26 | Cc1cc(C)n(-c2ccc(N)cc2)n1 | > 4 mM (inactive)
27 | O=C(O)Cc1n[nH]c(=O)c2ccccc12 | > 4 mM (inactive)
28 | CNC(=O)C(=O)NCc1ccc(C)cc1 | > 4 mM (inactive)
29 | CC12CN3CC(C)(CN(C1)C3c1cccs1)C2O (centres undefined) | > 4 mM (inactive)
30 | Nc1nnc(COc2cccc(C(F)(F)F)c2)s1 | > 4 mM (inactive)
31 | O=C(O)c1cc(O)c(O)c(O)c1 | > 4 mM (inactive)
32 | CCOC(=O)Cc1nc2ccccc2[nH]1 | > 4 mM (inactive)
33 | O=c1cc(-c2ccc(O)cc2)[nH]c(=S)[nH]1 | > 4 mM (inactive)
34 | Cc1occc1C(=O)Nc1ccc2c(c1)OCO2 | > 4 mM (inactive)
35 | C/C=C(\C)C(=O)O[C@H]1C[C@@H](OC(C)=O)[C@@]2(C(=O)OC)CO[C@@H]3C2[C@]12CO[C@](O)(C(=O)OC)[C@H]2[C@](C)(C12O[C@@]1(C)[C@H]1C[C@@H]2OC2OC=C[C@@]21O)[C@@H]3O (some centres undefined) | > 4 mM (inactive)
36 | CSc1ccc(C(=S)N2CCN(C)CC2)cc1 | > 4 mM (inactive)
37 | Cc1nc(-c2ccccc2)ncc1C(=O)O | > 4 mM (inactive)
38 | Cc1nn(C)c(Cl)c1C(O)c1c(C)nn(C)c1Cl | > 4 mM (inactive)
39 | NC(CCC(=O)Nc1ccc([N+](=O)[O-])cc1)C(=O)O (centres undefined) | > 4 mM (inactive)
40 | CC[C@]12CCCN3CCc4c(n(c5ccccc45)[C@](O)(C(=O)OC)C1)[C@@H]32 | > 4 mM (inactive)

Row | SMILES | Kd
41 | Cc1c(C(=O)N2CCOCC2)oc2c1C(=O)CC(C)(C)C2 | > 4 mM (inactive)
42 | NCCNC(=S)Nc1ccccc1 | > 4 mM (inactive)
43 | NC(=O)c1cc2c(n(-c3ccccc3)c1=O)CCCC2=O | > 4 mM (inactive)
44 | Cc1c(C)[n+](=O)c(-c2cccs2)c(C)n1[O-] | > 4 mM (inactive)
45 | CN1CCC(N2CCN(C)CC2)CC1 | > 4 mM (inactive)
46 | O=S1(=O)CCC(NC(=S)Nc2ccccn2)C1 (centres undefined) | > 4 mM (inactive)
47 | O=C(Nc1ccccc1)C(=O)NC1CC1 | > 4 mM (inactive)
48 | NCc1ccc(-c2cccs2)s1 | > 4 mM (inactive)
49 | CN(C)S(=O)(=O)c1ccc(NC=O)cc1 | > 4 mM (inactive)
50 | Nc1cc(N)nc(SCc2cccnc2)n1 | > 4 mM (inactive)
51 | COc1ccc(-c2cc(=O)c3c(O)cc(O[C@@H]4O[C@H](CO[C@H]5O[C@H](C)[C@@H](O)[C@H](O)[C@@H]5O)[C@@H](O)[C@H](O)[C@H]4O)cc3o2)cc1O | > 4 mM (inactive)
52 | COc1cc2c(cc1O)[C@@H](Cc1ccc(O)cc1)[N+](C)(C)CC2 | > 4 mM (inactive)
53 | O=C(O)c1ccc2c(c1)OCO2 | > 4 mM (inactive)
54 | CS(C)=C1C(=O)NC(=O)N(Cc2ccc(F)cc2)C1=O | > 4 mM (inactive)
55 | COc1ccc2ccc(=O)oc2c1 | > 4 mM (inactive)
56 | Cc1cc(C)n(S(=O)(=O)c2ccc(C)c(C)c2C)n1 | > 4 mM (inactive)
57 | O=C1CSC(c2ccc3c(c2)OCO3)N1 (centres undefined) | > 4 mM (inactive)
58 | COc1cc(OC)c(OC)cc1C=O | > 4 mM (inactive)
59 | COc1cc(S(=O)(=O)Nc2cccnc2)ccc1F | > 4 mM (inactive)
